Data set [1] can be described thus: Test B: Cytotoxicity Assay. The following applies: human, uninfected MT-4 cells, same protocol as Test A. The class given is cell-based. An outline of the steps: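 Uninfected MT-4 cells (2000 per well) incubated with diluted compound at 37° C. for 5 days, following the antiviral protocol without HIV-IIIb.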
In the next data set the test system is HIV-IIIb. Briefly: Test A: Antiviral Assay in MT4 Cells. The following applies: Human immunodeficiency virus 1, IIIB, MT4, 120 h; for inhibition at 0.2 µM: read-out: % inhibition at 0.2 μM; for inhibition at 2 µM: read-out: % inhibition at 2 μM. The class given is cell-based, HIV-1. The protocol: Test A: Antiviral Assay in MT4 Cells
MT-4 cells were next mixed with HIV-IIIb at an m.o.i of 0.003 for 1 hour, after which time 35 μL of virus/cell mixture (2000 cells) was immediately added to each well containing 40 μL of diluted compound. The plates were then incubated at 37° C. for 5 days. […] Cell lysis was carried out by incubating at room temperature for 10 min and then chemiluminescence was read.

Each structure is given as a SMILES string.

Regarding `Cn1nc(NS(C)(=O)=O)c2c(Cl)ccc(-c3cc(-c4ccccc4)cnc3[C@H](Cc3cc(F)cc(F)c3)NC(=O)Cn3nc(C(F)F)c4c3C(F)(F)[C@@H]3C[C@H]43)c21` [Compound 177D, N—((S)-1-(3-(4-chloro-1-methyl-3-(methylsulfonamido)-1H-indazol-7-yl)-5-phenylpyridin-2-yl)-2-(3,5-difluorophenyl)ethyl)-2-((3b-S,4aR)-3-(difluoromethyl)-5,5-difluoro-3b,4,4a,5-tetrahydro-1H-cyclopropa[3,4]cyclopenta[1,2-c]pyrazol-1-yl)acetamide], the CC50 at 5 days in data set [1] is more than 53.2 µM. Moreover, in the data set with HIV-IIIb, the inhibition at 0.2 µM came to 100% and the inhibition at 2 µM was found to be 100%.

For the compound `CN(C)c1cc(-c2ccc(Cl)c3c(NS(C)(=O)=O)nn(C)c23)c([C@H](Cc2cc(F)cc(F)c2)NC(=O)Cn2nc(C(F)F)c3c2C(F)(F)[C@@H]2C[C@H]32)nc1C#CC(C)(C)O` [Compound 183F, N—((S)-1-(3-(4-chloro-1-methyl-3-(methylsulfonamido)-1H-indazol-7-yl)-5-(dimethylamino)-6-(3-hydroxy-3-methylbut-1-yn-1-yl)pyridin-2-yl)-2-(3,5-difluorophenyl)ethyl)-2-((3b-S,4aR)-3-(difluoromethyl)-5,5-difluoro-3b,4,4a,5-tetrahydro-1H-cyclopropa[3,4]cyclopenta[1,2-c]pyrazol-1-yl)acetamide], the CC50 at 5 days in data set [1] worked out at 12.4 µM. In the data set with HIV-IIIb, the inhibition at 0.2 µM came out at 84% and the inhibition at 2 µM turned out to be 84%.

The compound `CC(C)n1cc(-c2ccc(-c3ccc(Cl)c4c(NS(C)(=O)=O)nn(C)c34)c([C@H](Cc3cc(F)cc(F)c3)NC(=O)Cn3nc(C(F)(F)F)c4c3C(F)(F)[C@@H]3C[C@H]43)n2)cn1` [Compound 174, N—((S)-1-(3-(4-chloro-1-methyl-3-(methylsulfonamido)-1H-indazol-7-yl)-6-(1-isopropyl-1H-pyrazol-4-yl)pyridin-2-yl)-2-(3,5-difluorophenyl)ethyl)-2-((3bS,4aR)-5,5-difluoro-3-(trifluoromethyl)-3b,4,4a,5-tetrahydro-1H-cyclopropa[3,4]cyclopenta[1,2-c]pyrazol-1-yl)acetamide] yielded a CC50 at 5 days in data set [1] of more than 53.2 µM. Also, in the data set with HIV-IIIb, the inhibition at 0.2 µM came to 85% and the inhibition at 2 µM turned out to be 85%.

For the compound `Cn1nc(NS(C)(=O)=O)c2c(Cl)ccc(-c3ccc(C#CC(C)(C)O)nc3[C@H](Cc3cc(F)cc(F)c3)NC(=O)Cn3ncc4c3C(F)(F)[C@@H]3C[C@H]43)c21` [Compound 150, N—((S)-1-(3-(4-chloro-1-methyl-3-(methylsulfonamido)-1H-indazol-7-yl)-6-(3-hydroxy-3-methylbut-1-yn-1-yl)pyridin-2-yl)-2-(3,5-difluorophenyl)ethyl)-2-((3bS,4aR)-5,5-difluoro-3b,4,4a,5-tetrahydro-1H-cyclopropa[3,4]cyclopenta[1,2-c]pyrazol-1-yl)acetamide], the CC50 at 5 days in data set [1] is 28.9 µM. For the same compound, in the data set with HIV-IIIb, the inhibition at 0.2 µM was 87% and the inhibition at 2 µM was found to be 87%.

`Cn1nc(NS(C)(=O)=O)c2cccc(-c3ccc(C#CC(C)(C)O)nc3[C@H](Cc3cc(F)cc(F)c3)NC(=O)Cn3nc(C(F)F)c4c3C(F)(F)[C@@H]3C[C@H]43)c21` [Compound 20, (S)—N-(1-(3-(1-methyl-3-(methylsulfonamido)-1H-indazol-7-yl)-6-(3-hydroxy-3-methylbut-1-ynyl)pyridin-2-yl)-2-(3,5-difluorophenyl)ethyl)-2-((3b-S,4aR)-5,5-difluoro-3-(difluoromethyl)-3b,4,4a,5-tetrahydro-1H-cyclopropa[3,4]cyclopenta[1,2-c]pyrazol-1-yl)acetamide] showed a half-maximal cytotoxic concentration (CC50) at 5 days in data set [1] of 11.2 µM. Besides, in the data set with HIV-IIIb, the inhibition at 0.2 µM worked out at 96% and the inhibition at 2 µM was determined as 80%.

Turning to `CCNc1nn(C)c2c(-c3ccc(C#CC(C)(C)O)nc3[C@H](Cc3cc(F)cc(F)c3)NC(=O)Cn3nc(C(F)F)c4c3C(F)(F)[C@@H]3C[C@H]43)ccc(Cl)c12` [Compound 91E, N—((S)-1-(3-(4-chloro-3-(ethylamino)-1-methyl-1H-indazol-7-yl)-6-(3-hydroxy-3-methylbut-1-yn-1-yl)pyridin-2-yl)-2-(3,5-difluorophenyl)ethyl)-2-((3b-S,4aR)-3-(difluoromethyl)-5,5-difluoro-3b,4,4a,5-tetrahydro-1H-cyclopropa[3,4]cyclopenta[1,2-c]pyrazol-1-yl)acetamide], in data set [1], the CC50 at 5 days was found to be 9.38 µM. Moreover, in the data set on HIV-IIIb, the inhibition at 0.2 µM came to 100% and the inhibition at 2 µM was determined as 100%.

Regarding `Cc1ccc(-c2ccc(C#CC(C)(C)C)nc2[C@H](Cc2cc(F)cc(F)c2)NC(=O)Cn2nc(C(F)F)c3c2C(F)(F)[C@@H]2C[C@H]32)c2nnc(N)n12` [Compound 116A, N—((S)-1-(3-(3-amino-5-methyl-[1,2,4]triazolo[4,3-a]pyridin-8-yl)-6-(3,3-dimethylbut-1-yn-1-yl)pyridin-2-yl)-2-(3,5-difluorophenyl)ethyl)-2-((3b-S,4aR)-3-(difluoromethyl)-5,5-difluoro-3b,4,4a,5-tetrahydro-1H-cyclopropa[3,4]cyclopenta[1,2-c]pyrazol-1-yl)acetamide], in data set [1], the midpoint of cytotoxicity, the CC50 at 5 days, lay at 10.5 µM. Further, in the data set with HIV-IIIb, the inhibition at 0.2 µM turned out to be 62% and the inhibition at 2 µM came out at 93%.

For `CC(C)(O)C#Cc1ccc(-c2ccc3nnc(N)n3c2)c([C@H](Cc2cc(F)cc(F)c2)NC(=O)Cn2nc(C(F)F)c3c2C(F)(F)[C@@H]2C[C@H]32)n1` [Compound 105E, N—((S)-1-(3-(3-amino-[1,2,4]triazolo[4,3-a]pyridin-6-yl)-6-(3-hydroxy-3-methylbut-1-yn-1-yl)pyridin-2-yl)-2-(3,5-difluorophenyl)ethyl)-2-((3b-S,4aR)-3-(difluoromethyl)-5,5-difluoro-3b,4,4a,5-tetrahydro-1H-cyclopropa[3,4]cyclopenta[1,2-c]pyrazol-1-yl)acetamide], half-maximal cytotoxicity in data set [1] (CC50 at 5 days) was put at 31.5 µM. The inhibition at 2 µM with HIV-IIIb came out at 74%.

`CC(C)(O)C#Cc1ncc(-c2ccc(F)c(C(N)=O)c2)c([C@H](Cc2cc(F)cc(F)c2)NC(=O)Cn2nc(C(F)(F)F)c3c2C(F)(F)[C@@H]2C[C@H]32)n1` [Compound 23B, 5-(4-((S)-1-(2-((3bS,4aR)-5,5-difluoro-3-(trifluoromethyl)-3b,4,4a,5-tetrahydro-1H-cyclopropa[3,4]cyclopenta[1,2-c]pyrazol-1-yl)acetamido)-2-(3,5-difluorophenyl)ethyl)-2-(3-hydroxy-3-methylbut-1-yn-1-yl)pyrimidin-5-yl)-2-fluorobenzamide] returned a CC50 at 5 days in data set [1] of 7.62 µM. In the data set on HIV-IIIb, the inhibition at 0.2 µM came out at 83% and the inhibition at 2 µM worked out at 88%.

For the compound `Cn1nc(NS(C)(=O)=O)c2c(Cl)ccc(-c3ccc(-c4cnc(C(C)(C)C)s4)nc3[C@H](Cc3cc(F)cc(F)c3)NC(=O)Cn3nc(C(F)(F)F)c4c3C(F)(F)[C@@H]3C[C@H]43)c21` [Compound 178, N—((S)-1-(6-(2-(tert-butyl)thiazol-5-yl)-3-(4-chloro-1-methyl-3-(methylsulfonamido)-1H-indazol-7-yl)pyridin-2-yl)-2-(3,5-difluorophenyl)ethyl)-2-((3b-S,4aR)-5,5-difluoro-3-(trifluoromethyl)-3b,4,4a,5-tetrahydro-1H-cyclopropa[3,4]cyclopenta[1,2-c]pyrazol-1-yl)acetamide], in data set [1], the CC50 at 5 days came to 14 µM. Moreover, in the data set with HIV-IIIb, the inhibition at 0.2 µM was 95% and the inhibition at 2 µM is 100%.

The values above are taken from patent publication US20140303164A1, “THERAPEUTIC COMPOUNDS” (Gilead Sciences, Inc., priority 2013, published 2014).
